Experimental data: ChEMBL document CHEMBL1145805, “Utilization of a beta-aminophosphotyrosyl mimetic in the design and synthesis of macrocyclic Grb2 SH2 domain-binding peptides” (J Med Chem, 2003)
The source made the active and inactive calls. The calls are words filed in the database; no cut-off is given here.

Experiments:
[1] = molecular target: T1, Growth factor receptor-bound protein 2 (Homo sapiens, UniProt P62993); assay: Inhibition of Growth factor receptor bound protein 2 SH2 domain in extracellular binding assay
[2] = molecular target: T1, Growth factor receptor-bound protein 2; assay: Inhibition of growth factor receptor-bound protein 2 SH2 domain binding to erbB-2 in cell-based assay (Not significant)
MDA-MB-453 = assay: Inhibition of MDA-MB-453 breast cancer cell proliferation (No inhibition); format: functional, cell-based; conditions: Homo sapiens

IC50 [1]	NS [2]	SMILES	NI (MDA-MB-453)
47.9 µM		NC(=O)C[C@@H]1NC(=O)C2(CCCCC2)NC(=O)C[C@@H](c2ccc(CP(=O)(O)O)cc2)NC(=O)CCCNC1=O	
52.5 µM		NC(=O)C[C@H](NC(=O)C1(NC(=O)CCc2ccc(CP(=O)(O)O)cc2)CCCCC1)C(N)=O	
> 600 µM		NC(=O)C[C@@H]1NC(=O)C2(CCCCC2)NC(=O)C[C@@H](c2ccc(CP(=O)(O)O)cc2)NC(=O)CNC1=O	
0.026 µM	inactive	NC(=O)C[C@@H]1NC(=O)C2(CCCCC2)NC(=O)C[C@@H](c2ccc(CP(=O)(O)O)cc2)/C=C/C[C@@H](Cc2cccc3ccccc23)CNC1=O	inactive
> 600 µM		NC(=O)C[C@@H]1NC(=O)C2(CCCCC2)NC(=O)C[C@@H](c2ccc(CP(=O)(O)O)cc2)NC(=O)CCNC1=O	
7.9 µM	inactive	NC(=O)C[C@@H]1NC(=O)C2(CCCCC2)NC(=O)C[C@@H](c2ccc(CP(=O)(O)O)cc2)NC(=O)C[C@@H](Cc2cccc3ccccc23)CNC1=O	inactive
